Laboratory results as given in patent US7341836B2, “Modified cyclic nucleotide gated ion channels” (The Regents of the University of Colorado, priority 2001, dated 2008).
“Also recorded” adds a separate entry of the source.

What was measured:
[1] = test system: rat olfactory CNG channel α subunit; experiment: Excised inside-out patch recordings, cyclic nucleotide dose-response of CNG channel constructs; format: biochemical; conditions: 100 μM IBMX; 1 μM PGE1
In short: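 Inside-out patches were excised and recorded at 20-21° C., with symmetrical 130 mM NaCl, 2 mM HEPES, 0.02 mM EDTA, 1 mM EGTA, pH 7.6. Currents were elicited by 250 ms pulses to +50 and −50 mV; cyclic nucleotide-induced current was taken as the difference with and without cNMP. cAMP and cGMP dose-responses were fitted to the Hill equation for K1/2 and N.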

PDE IV = conditions: cited from earlier work
PDE VI = conditions: cited from earlier work
PDE XI = target: T1, PDE XI (Homo sapiens, UniProt Q9HCR9); conditions: cited from earlier work
T1 construct: host or cells: heterologously expressed
T1 sequence (Q9HCR9 445-933 limits assumed): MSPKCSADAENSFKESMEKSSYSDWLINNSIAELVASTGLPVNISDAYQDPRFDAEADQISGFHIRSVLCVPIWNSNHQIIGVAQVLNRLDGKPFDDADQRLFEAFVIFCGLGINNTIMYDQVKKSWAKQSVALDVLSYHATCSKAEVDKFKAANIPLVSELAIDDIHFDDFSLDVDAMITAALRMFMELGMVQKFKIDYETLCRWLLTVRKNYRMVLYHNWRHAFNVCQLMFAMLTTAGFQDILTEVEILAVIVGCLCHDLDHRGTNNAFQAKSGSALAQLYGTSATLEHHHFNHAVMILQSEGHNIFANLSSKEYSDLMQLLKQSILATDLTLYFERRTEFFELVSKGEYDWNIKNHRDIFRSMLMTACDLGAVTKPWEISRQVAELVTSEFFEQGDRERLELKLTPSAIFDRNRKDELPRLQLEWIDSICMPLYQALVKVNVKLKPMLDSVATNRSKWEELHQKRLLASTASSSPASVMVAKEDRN

SMILES | effect on CNG channel activity in excised membrane patches [1] | IC50 (PDE IV) | IC50 (PDE VI) | IC50 (PDE XI)
CC(C)Cn1c(=O)n(C)c(=O)c2[nH]cnc21 [IBMX, 3-isobutyl-1-methylxanthine] | did not alter CNG channel activity; also recorded: no effect on channel activity | 5 to 15 µM | 10 µM | 49.8 µM
CCCCOc1cc(CC2CNC(=O)N2)ccc1OC (stereo not drawn) [RO-20-1724, 4-(3-butoxy-4-methoxybenzyl)-2-imidazolidinone] | no effect on channel activity | – | – | –
COc1ccc(C2CNC(=O)C2)cc1OC1CCCC1 (stereo not drawn) [Rolipram] | – | – | – | > 100 µM
